Read-outs that look alike come from different tables or passages of the source. Marks after values point to notes of the source that are not given here.
Experiments:
[1] = test system: weeds; test: Post-emergence test (Example B), damage to weeds; format: in vivo; conditions: test plants of 5-15 cm sprayed, rated after three weeks
Experimental: (§1) To produce a suitable preparation of active compound, 1 part by weight of active compound is mixed with the stated amount of solvent, the stated amount of emulsifier is added and the concentrate is diluted with water to the desired concentration.
Test plants of a height of 5-15 cm are sprayed with the preparation of active compound such that the particular amounts of active compound desired are applied per unit area. The concentration of the spray liquor is chosen such that the particular amounts of active compound desired are applied in 1000 l of water/ha.
After three weeks, the degree of damage to the plants is rated in % damage in comparison to the development of the untreated control.
The figures denote: • 0%=no effect (like untreated control) • 100%=total destruction

[2] = test system: weeds; test: Pre-emergence test (Example A), damage to weeds; format: in vivo; conditions: soil sprayed 24 hours after sowing, rated after three weeks
Experimental: as §1
Seeds of the test plants are sown in normal soil. After 24 hours, the soil is sprayed with the preparation of active compound such that the particular amount of active compound desired is applied per unit area. The concentration of active compound in the spray liquor is chosen such that the particular amount of active compound desired is applied in 1000 liters of water per hectare.
After three weeks, the degree of damage to the plants is rated in % damage in comparison to the development of the untreated control. The figures denote: • 0%=no effect (like untreated control) • 100%=total destruction

[3] = logP by HPLC on reversed-phase column (C 18), EEC Directive 79/831 Annex V.A8; format: physicochemical

Compound	activity against weeds (degree of damage) [1]	activity against weeds (degree of damage) [2]	logP [3]	logP ([3]; a) acidic range: 0.1% aqueous phosphoric acid, acetonitrile gradient, 43° C.)
CN1CCN(C(=O)Nc2cc(-n3c(=O)cc(C(F)(F)F)n(C)c3=O)c(F)cc2Br)C1=O [Example 5]	strong activity	strong activity	logP = 2.55^a)	
CCN1CCN(C(=O)Nc2cc(-n3c(=O)cc(C(F)(F)F)n(C)c3=O)c(F)cc2Br)C1=O [Example 6]	strong activity	strong activity	logP = 2.85^a)	
CN1CCCN(C(=O)Nc2cc(-n3c(=O)cc(C(F)(F)F)n(C)c3=O)c(F)cc2Br)C1=O [Example 7]	strong activity	strong activity	logP = 2.79^a)	
CON(C)C(=O)Nc1cc(-n2c(=O)cc(C(F)(F)F)n(C)c2=O)c(F)cc1Br [Example 8]	strong activity	strong activity	logP = 2.67^a)	
CONC(=O)Nc1cc(-n2c(=O)cc(C(F)(F)F)n(C)c2=O)c(F)cc1Br [Example 9]	strong activity	strong activity	logP = 2.19^a)	
CCOC(=O)C(C)OC(=O)Nc1cc(-n2c(=O)cc(C(F)(F)F)n(C)c2=O)c(F)cc1Br (stereo not drawn) [Example 10]	strong activity	strong activity	logP = 3.06^a)	
Cn1c(C(F)(F)F)cc(=O)n(-c2cc(NC(=O)NCCC#N)c(Br)cc2F)c1=O [Example 20]		strong activity		logP = 2.08^a)
CON(C)C(=O)Nc1cc(-n2c(=O)cc(C(F)(F)F)n(C)c2=O)c(F)cc1Cl [Example 21]	strong activity	strong activity	logP = 2.60^a)	
C=CCONC(=O)Nc1cc(-n2c(=O)cc(C(F)(F)F)n(C)c2=O)c(F)cc1Cl [Example 22]		strong activity	logP = 2.60^a)	
Cn1c(C(F)(F)F)cc(=O)n(-c2cc(NC(=O)N3CCCO3)c(Cl)cc2F)c1=O [Example 24]	strong activity	strong activity	logP = 2.58^a)	
Cn1c(C(F)(F)F)cc(=O)n(-c2cc(NC(=O)N3CCOC3=O)c(Cl)cc2F)c1=O [Example 25]	strong activity	strong activity	logP = 2.55^a)	
C=CCONC(=O)Nc1cc(-n2c(=O)cc(C(F)(F)F)n(C)c2=O)c(F)cc1Br [Example 26]	strong activity	strong activity	logP = 2.67^a)	
CCONC(=O)Nc1cc(-n2c(=O)cc(C(F)(F)F)n(C)c2=O)c(F)cc1Cl [Example 27]	strong activity	strong activity	logP = 2.45^a)	
Cn1c(C(F)(F)F)cc(=O)n(-c2cc(NC(=O)N3CCCO3)c(Br)cc2F)c1=O [Example 28]	strong activity	strong activity	logP = 2.63^a)	
Cn1c(C(F)(F)F)cc(=O)n(-c2cc(NC(=O)N3CCOC3=O)c(Br)cc2F)c1=O [Example 30]	strong activity	strong activity	logP = 2.59^a)	
Cn1ccsc1=NC(=O)Nc1cc(-n2c(=O)cc(C(F)(F)F)n(C)c2=O)c(F)cc1Br [Example 31]	strong activity	strong activity	logP = 2.59^a)	
Cn1ccsc1=NC(=O)Nc1cc(-n2c(=O)cc(C(F)(F)F)n(C)c2=O)c(F)cc1Cl [Example 32]	strong activity	strong activity	logP = 2.51^a)	
CN(Cc1ccco1)C(=O)Nc1cc(-n2c(=O)cc(C(F)(F)F)n(C)c2=O)c(F)cc1Br [Example 37]	strong activity	strong activity	logP = 2.95^a)	
CCCN(C(=O)Nc1cc(-n2c(=O)cc(C(F)(F)F)n(C)c2=O)c(F)cc1Br)C(C)C [Example 38]	strong activity	strong activity	logP = 2.79^a)	
Cn1c(C(F)(F)F)cc(=O)n(-c2cc(NC(=O)NC3=NCCS3)c(Br)cc2F)c1=O [Example 39]	strong activity	strong activity	logP = 2.16^a)	
CN(Cc1ccco1)C(=O)Nc1cc(-n2c(=O)cc(C(F)(F)F)n(C)c2=O)c(F)cc1Cl [Example 44]	strong activity	strong activity	logP = 2.88^a)	
CCCN(C(=O)Nc1cc(-n2c(=O)cc(C(F)(F)F)n(C)c2=O)c(F)cc1Cl)C(C)C [Example 45]	strong activity	strong activity	logP = 2.58^a)	
Cn1c(C(F)(F)F)cc(=O)n(-c2cc(NC(=O)NC3=NCCS3)c(Cl)cc2F)c1=O [Example 48]	strong activity	strong activity	logP = 2.11^a)	
Cn1c(C(F)(F)F)cc(=O)n(-c2cc(NC(=O)N3CCOCC3)c(Cl)cc2F)c1=O [Example 49]		strong activity	logP = 2.11^a)	

From patent US7521396B2, “Substituted (thioxo)carbonylaminophenyluracils” (Bayer CropScience AG, priority 2002, dated 2009)
